Source: US9302999B2, “Substituted triazoles as herbicides” (E. I. DU PONT DE NEMOURS AND COMPANY, priority 2012, dated 2016)

How the values were obtained:
Format in all cases: in vivo
[1] = system: sedge, umbrella (small-flower umbrella sedge Cyperus difformis); assay: Test B flooded paddy: sedge, umbrella; conditions: Flood; 250 g ai/ha; applied to paddy water at 2-leaf stage; visually evaluated after 13 to 15 days
Procedure: (§1) Seeds selected from rice (Oryza sativa), sedge, umbrella (small-flower umbrella sedge Cyperus difformis), ducksalad (Heteranthera limosa), and barnyardgrass (Echinochloa crus-galli) were grown to the 2-leaf stage for testing. At time of treatment, test pots were flooded to 3 cm above the soil surface, treated by application of test compounds directly to the paddy water, and then maintained at that water depth for the duration of the test.
(§2) Treated plants and controls were maintained in a greenhouse for 13 to 15 days, after which time all species were compared to controls and visually evaluated. Plant response ratings, summarized in Table B, are based on a scale of 0 to 100 where 0 is no effect and 100 is complete control. A dash (-) response means no test result.

[2] = system: velvetleaf (Abutilon theophrasti); assay: Test A pre-/postemergence: velvetleaf; conditions: for Velvetleaf plant response rating: Postemergence; for Plant response rating, Velvetleaf: Preemergence
In short: (§3)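 Injury was scored visually on a 0 (no effect) to 100 (complete control) scale versus untreated controls roughly ten days after treatment in the greenhouse. Compounds, formulated in surfactant-containing non-phytotoxic solvent, went on as soil-directed preemergence spray or postemergence to one- to two-leaf plants 2–10 cm tall.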

[3] = system: foxtail, giant (giant foxtail, Setaria faberii); assay: Test A pre-/postemergence: foxtail, giant; conditions: for Foxtail, Giant plant response rating: Postemergence; for Plant response rating, Foxtail, Giant: Preemergence
In short: as §3

[4] = system: barnyardgrass (Echinochloa crus-galli); assay: Test B flooded paddy: barnyardgrass; conditions: Flood; 250 g ai/ha; applied to paddy water at 2-leaf stage; visually evaluated after 13 to 15 days
In short: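 Response scored visually, 0–100 relative to controls, 13–15 days after the compound was applied into paddy water; plants were at the 2-leaf stage in pots kept flooded to 3 cm.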

[5] = system: barnyardgrass (Echinochloa crus-galli); assay: Test A pre-/postemergence: barnyardgrass; conditions: for Barnyardgrass plant response rating: Postemergence; for Plant response rating, Barnyardgrass: Preemergence
In short: as §3

[6] = system: crabgrass, large (large crabgrass, Digitaria sanguinalis); assay: Test A pre-/postemergence: crabgrass, large; conditions: for Crabgrass, Large plant response rating: Postemergence; for Plant response rating, Crabgrass, Large: Preemergence
In short: as §3

[7] = system: pigweed (Amaranthus retroflexus); assay: Test A pre-/postemergence: pigweed; conditions: for Pigweed plant response rating: Postemergence; for Plant response rating, Pigweed: Preemergence
In short: as §3

corn (Zea mays) = assay: Test A pre-/postemergence: corn; conditions: for Corn plant response rating: Postemergence; for Plant response rating, Corn: Preemergence
In short: as §3

[8] = system: ducksalad (Heteranthera limosa); assay: Test B flooded paddy: ducksalad; conditions: Flood; 250 g ai/ha; applied to paddy water at 2-leaf stage; visually evaluated after 13 to 15 days
Procedure: as §1, §2

[9] = system: wheat (Triticum aestivum); assay: Test A pre-/postemergence: wheat; conditions: for Wheat plant response rating: Postemergence; for Plant response rating, Wheat: Preemergence
In short: as §3

rice (Oryza sativa) = assay: Test B flooded paddy: rice; conditions: Flood; 250 g ai/ha; applied to paddy water at 2-leaf stage; visually evaluated after 13 to 15 days
Procedure: as §1, §2

[10] = system: morningglory (Ipomoea spp.); assay: Test A pre-/postemergence: morningglory; conditions: for Morningglory plant response rating: Postemergence; for Plant response rating, Morningglory: Preemergence
In short: as §3

[11] = 125 g ai/ha, 0 to 100 scale, 0 is no effect, 100 is complete control
[12] = 500 g ai/ha, visual rating on 0 to 100 scale (0 no effect, 100 complete control), approximately ten days
[13] = 125 g ai/ha, 0 to 100 scale (0 no effect, 100 complete control)
[14] = 500 g ai/ha, 0 to 100 scale, 0 is no effect, 100 is complete control

| SMILES | Plant response rating, Sedge, Umbrella (0 to 100 scale, 0 is no effect, 100 is complete control) [1] | Velvetleaf plant response rating [2, 11] | Velvetleaf plant response rating [2, 12] | Plant response rating, Velvetleaf [2, 13] | Plant response rating, Velvetleaf [2, 14] | Foxtail, Giant plant response rating [3, 11] | Foxtail, Giant plant response rating [3, 12] | Plant response rating, Foxtail, Giant [3, 13] | Plant response rating, Foxtail, Giant [3, 14] | Plant response rating, Barnyardgrass (0 to 100 scale, 0 is no effect, 100 is complete control) [4] | Barnyardgrass plant response rating [5, 11] | Barnyardgrass plant response rating [5, 12] | Plant response rating, Barnyardgrass [5, 13] | Plant response rating, Barnyardgrass [5, 14] | Crabgrass, Large plant response rating [6, 11] | Crabgrass, Large plant response rating [6, 12] | Plant response rating, Crabgrass, Large [6, 13] | Plant response rating, Crabgrass, Large [6, 14] | Pigweed plant response rating [7, 11] | Pigweed plant response rating [7, 12] | further results |
| --- | --- | --- | --- | --- | --- | --- | --- | --- | --- | --- | --- | --- | --- | --- | --- | --- | --- | --- | --- | --- | --- |
| Cc1ccc(-n2nc(C)c(C(=O)c3cccc(C(F)(F)F)c3)n2)cc1 [Compound 44] | 0 | 60 | 70 | 0 | 50 | 20 | 30 | 70 | 90 | 0 | 20 | 20 | 0 | 30 | 30 | 40 | 60 | 90 | 70 | 90 | Plant response rating, Pigweed [7, 13]: 20; Plant response rating, Pigweed [7, 14]: 90; Corn plant response rating (corn (Zea mays); [11]): 30; Corn plant response rating (corn (Zea mays); [12]): 30; Plant response rating, Corn (corn (Zea mays); [13]): 0; Plant response rating, Corn (corn (Zea mays); [14]): 20; Plant response rating, Ducksalad (0 to 100 scale, 0 is no effect, 100 is complete control) [8]: 0; Wheat plant response rating [9, 11]: 20; Wheat plant response rating [9, 12]: 30; Plant response rating, Wheat [9, 13]: 0; Plant response rating, Wheat [9, 14]: 30; Plant response rating, Rice (0 to 100 scale, 0 is no effect, 100 is complete control) (rice (Oryza sativa)): 0; Morningglory plant response rating [10, 11]: 20; Morningglory plant response rating [10, 12]: 70 |
| Cc1nn(-c2ccc(Br)cc2)nc1Oc1ccnc(C(F)(F)F)c1 [Compound 53] | 85 | 80 | 100 | 10 | 50 | 90 | 90 | 100 | 100 | 60 | 90 | 90 | 80 | 100 | 90 | 90 | 100 | 100 | 100 | 100 | Plant response rating, Pigweed [7, 13]: 90; Plant response rating, Pigweed [7, 14]: 100; Corn plant response rating (corn (Zea mays); [11]): 30; Corn plant response rating (corn (Zea mays); [12]): 40; Plant response rating, Corn (corn (Zea mays); [13]): 0; Plant response rating, Corn (corn (Zea mays); [14]): 20; Plant response rating, Ducksalad (0 to 100 scale, 0 is no effect, 100 is complete control) [8]: 85; Wheat plant response rating [9, 11]: 20; Wheat plant response rating [9, 12]: 30; Plant response rating, Wheat [9, 13]: 10; Plant response rating, Wheat [9, 14]: 30; Plant response rating, Rice (0 to 100 scale, 0 is no effect, 100 is complete control) (rice (Oryza sativa)): 50; Plant response rating, Morningglory [10, 13]: 30; Plant response rating, Morningglory [10, 14]: 40 |
